Source: patent US8765729B2, “Cancer therapy” (Aeolus Sciences, Inc., priority 2001, dated 2014)

Tests used:
[1] = SOD activity (cytochrome C method); format: biochemical
Source text: FIGS. 1A-1H show the structures of certain generic and specific definitions of compounds suitable for use in the present invention. With reference to FIG. 1C, mimetics of the invention can be of Formula I or Formula II, or dimeric forms thereof, an example of a dimeric form being shown in FIG. 1D. With reference to FIG. 1H, the SOD activities of certain of the depicted compounds are shown in Table 1 (as measured by the cytochrome C method): […]

[2] = test system: oral mucositis induced by acute radiation; assay: Oral mucositis induced by acute radiation in hamsters; format: in vivo
Method: Forty hamsters were given an acute radiation dose directed to their oral mucosa. Test materials will be applied by injection, or topically (three times per day) beginning the day before radiation and continuing until day 20. Mucositis were evaluated on alternate days beginning on day 6 (day of radiation=day 0) and continuing until the conclusion of the experiment on day 28.
Forty (40) hamsters were used. The hamsters were randomized into five (5) groups of eight (8) animals each. Each group was assigned a different treatment of 0.2 ml tid as follows:
Parameters measured included the mucositis score, weight change and survival. For the evaluation of mucositis, the animals were anesthetized with inhalation anesthetics ([…] or Halothane), and the left pouch everted. Mucositis was scored both clinically during the laboratory portion of the study and in a blinded manner (at the conclusion of the study). Clinical scoring was performed by visual comparison to a validated photographic scale, ranging from 0 for normal, to 5 for severe ulceration.
• 0 Pouch completely healthy. No erythema or vasodilation • 1 Light to […] erythema and vasodilation. No erosion of mucosa • 2 Severe erythema and vasodilation. Erosion of superficial aspects of mucosa leaving denuded areas. Decreased stippling of mucosa. • 3 Formation of off-white ulcers in one or more places. Ulcers may have a yellow/gray due to pseudomembrane. Cumulative size of ulcers should equal about ¼ of the pouch. Severe erythema and vasodilation. • 4 Cumulative seize of ulcers should equal about ½ of the pouch. Loss of pliability. Severe erythema and vasodilation. • 5 Virtually all of pouch is ulcerated. Loss of pliability (pouch can only partially be extracted from mouth) A score of 1-2 is considered to represent a mild stage of the disease, whereas a score 3-5 is considered to indicate moderate to severe mucositis. Results
Chi-square analysis of the total number of days the animals in each group spent with a score of three or more. This statistic is a measure of severity of ulceration, a clinically important outcome. Significant efficacy is indicated in red.

[3] = test system: R3230 mammary adenocarcinoma cells in Z-chambers; assay: Tumor development in Z-chambers; format: in vivo, Fisher-344 rats; conditions: 6 mg/kg i.p. 24 hours before implantation of 2.5 mil./ml cells
Method: FIG. 4. Animals were pretreated with different SOD mimetics (6 mg/kg i.p.) 24 hours before implantation of 2.5 mil./ml R3230 mammary adenocarcinoma cells in Z-chambers.
These chambers are constructed from customized plexi-glass rings with internal diameter of 10 mm and have a pore on the side. The two open surfaces are covered by nylon mesh (pore size 180 microns, Millipore, Mass.) and glued to the rings. Fibrinogen (Human fibrinogen, plasminogen depleted, CalBiochem) is prepared in DMEM, Gibco BRL) and a concentration of 4-5 mg/ml is utilized for the studies. Although the Fischer rats used in the study are immune competent, this purified batch of fibrinogen has been recognized to be very well conserved across species lines. It has already been shown that early angiogenic response to human fibrinogen is very similar to rat fibrinogen in fibrin gel chambers. The two different types of fibrinogen have also been tested in the Z-Chambers and no difference was found in angiogenic and healing response. Human fibrinogen was used.
The Fibrin Z-Chambers have fibrinogen solution poured inside the chamber through the pore and followed by 2 units of thrombin. […]
The Z-Chambers were harvested on day 1 or 12 post surgery. […] The depth of either the tumor tissue (tumor growth) or granulation tissue (wound healing) was measured with calipers on the 4×6 inch print. […]

[4] = high dose IP (1 mg/ml tid), total days 192
[5] = high dose topical (1 mg/ml tid), total days 192
[6] = low dose IP (0.25 mg/ml tid), total days 192
[7] = low dose topical (0.25 mg/ml tid), total days 182

## CuZn-SOD: dimeric copper- and zinc-containing enzyme found in the cytosol of all cells
[1]
  SOD activity: 2,200 U/mg

## CCn1cc[n+](CC)c1-c1c2nc(c(-c3n(CC)cc[n+]3CC)c3ccc([nH]3)c(-c3n(CC)cc[n+]3CC)c3nc(c(-c4n(CC)cc[n+]4CC)c4ccc1[nH]4)C=C3)C=C2.[Mn+3] [Compound 10150, manganese(III)tetrakis(N-diethylimidazolium-2,5-yl)porphyrin]
[2]; INC-01, 0.25 mg/ml IP, control 45.8, P 0.001
  Percent Days > 3: 18.8%
[2]; INC-01, 0.25 mg/ml Topical, control 45.8, P 0.953
  Percent Days > 3: 45.6%
[2]; INC-01, 1 mg/ml IP, control 45.8, P 0.005
  Percent Days > 3: 31.3%
[2]; INC-01, 1 mg/ml Topical, control 45.8, P 0.148
  Percent Days > 3: 38%
[2]; INC-02, 0.25 mg/ml IP, control 43.3, P 0.004
  Percent Days > 3: 28.6%
[2]; INC-02, 1.5 mg/ml IP, control 43.3, P 0.002
  Percent Days > 3: 27.6%
[2]; INC-02, 1.5 mg/ml Topical, control 43.3, P 0.298
  Percent Days > 3: 37.5%
[2]; INC-02, 5 mg/ml Topical, control 43.3, P 0.002
  Percent Days > 3: 27.6%
[2]; INC-03, 1 mg/ml IP, control 33.3, P 0.113
  Percent Days > 3: 38.1%
[2]; INC-04, 0.25 mg/ml IP, control 43.9, P 0.485
  Percent Days > 3: 47.3%
[2]; INC-05, 0.25 mg/ml IP, control 68.8, P 0.001
  Percent Days > 3: 42.1%
[2]; INC-05, 1.5 mg/ml IP, control 68.8, P 0.001
  Percent Days > 3: 33.3%
[2]; IP, 0.2 ml of 0.25 mg/ml TID, 1.5 mg/kg/day
  reduction in the percent of days with Mucositis Scores ≧3: 59%
[2]; [4]
  Days < 3: 132
  Days >= 3: 60
[2]; high dose IP, control 45.8, P 0.005
  % Days >= 3: 31.3%
[2]; [5]
  Days < 3: 119
  Days >= 3: 73
[2]; high dose topical, control 45.8, P 0.148
  % Days >= 3: 38.0%
[2]; high dose topical, not statistically significant
  mucositis severity: tended to reduce mucositis severity
[2]; [6]
  Days < 3: 156
  Days >= 3: 36
[2]; low dose IP, control 45.8, P <0.001
  % Days >= 3: 18.8%
[2]; [7]
  Days < 3: 99
  Days >= 3: 83
[2]; low dose topical, control 45.8, P 0.953
  % Days >= 3: 45.6%
[2]; most evident with IP administration
  severity of mucositis associated with radiation therapy: markedly reduces the severity of mucositis
[2]; topical dosing, both concentrations
  incidence of severe mucositis: not in either group treated by topical dosing
[1]
  SOD activity: 14,789 U/mg
[3]
  tumor development: Significant (p<0.01) inhibition of tumor development
